How the values were obtained:
TPH = conditions: background statement; cited from earlier work
[1] = test system: central 5-HT production / CNS functions; conditions: cited from earlier work
[2] = carcinoid tumor patients; cited from earlier work
[3] = test system: jejunal mucosal 5-HT in mice (C57 BL6); assay: Reduction of mucosal 5-HT concentrations (Example C, repeated oral dosing); format: in vivo, mouse; conditions: after three oral doses (first 10 or 50 mg/kg, then two doses of 50 mg/kg) (title), P-value class
[4] = test system: jejunal mucosal 5-HT in mice (C57 BL6); assay: Intestinal 5-HT depletion assay (Example B, single 150 mg/kg oral dose); format: in vivo, mouse; conditions: one day after oral administration of a single 150 mg/kg dose, P-value class (ANOVA)
Method in brief: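 C57 BL6 mice received one 150 mg/kg oral gavage dose; jejunal mucosa was homogenized in acidic trichloroacetic acid buffer and 5-HT measured by HPLC. Levels normalized to BCA protein, expressed as mean percent reduction versus vehicle ± SEM; ANOVA significance.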

[5] = target: T1, Recombinant human TPH1 (MBP tagged) (Homo sapiens, UniProt P17752); assay: TPH1 in vitro inhibition assay (kinetic fluorescence); format: biochemical; conditions: read-out: TPH1 Range (TPH1 inhibition IC50)
T1 construct: cloning full length human TPH1 cDNA in to a bacterial pMAL-c5E expression vector; made in house; host or cells: E. coli BL21 (DE3)
T1 sequence (P17752 1-444): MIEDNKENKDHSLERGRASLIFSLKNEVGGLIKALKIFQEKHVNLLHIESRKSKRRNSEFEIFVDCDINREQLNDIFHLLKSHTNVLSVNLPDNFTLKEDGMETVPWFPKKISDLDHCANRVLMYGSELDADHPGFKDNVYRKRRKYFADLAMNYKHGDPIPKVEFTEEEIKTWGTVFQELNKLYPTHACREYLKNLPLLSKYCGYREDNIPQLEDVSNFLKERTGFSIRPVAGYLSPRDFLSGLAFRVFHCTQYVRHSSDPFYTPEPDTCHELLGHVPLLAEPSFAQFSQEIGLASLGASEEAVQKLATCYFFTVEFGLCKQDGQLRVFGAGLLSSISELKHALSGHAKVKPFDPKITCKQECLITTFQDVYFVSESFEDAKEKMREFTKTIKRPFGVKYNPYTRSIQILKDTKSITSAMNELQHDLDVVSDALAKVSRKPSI
Method in brief: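 Final mix: 15 nM MBP-TPH1, 30 μM Trp, 36 μM 6-methyltetrahydropterin, 25 μM ferrous ammonium sulfate, 50 mM MES pH 7.1, 1% DMSO, room temperature.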

IC50 [5] [nM] | Structure (SMILES) | TPH inhibition (in words) (TPH) | effect on central 5-HT production ([1]; in vivo) | CNS side effects ([1]; patients and animals) | efficacy against chemotherapy-induced emesis and diarrhea [2] | Efficacy (statistical significance of reduction of mucosal 5-HT concentrations relative to vehicle) [3] | Efficacy (statistical significance of reduction of mucosal 5-HT concentrations relative to vehicle) [4]
< 50 | Cc1ccn(-c2cc(-c3ccc(OC(C)C)cc3)ccc2[C@@H](Oc2cc(N3CCC4(CC3)CN[C@H](C(=O)O)C4)nc(N)n2)C(F)(F)F)n1 [Example 1l, (S)-8-(2-amino-6-((R)-2,2,2-trifluoro-1-(4′-isopropoxy-3-(3-methyl-1H-pyrazol-1-yl)-[1,1′-biphenyl]-4-yl)ethoxy)pyrimidin-4-yl)-2,8-diazaspiro[4.5]decane-3-carboxylic acid] | – | – | – | – | *** (*** refers to P<0.005) | **** (and refers to P<0.0005)
< 50 | CCCCc1ccc([C@@H](Oc2cc(N3CCC4(CC3)CN[C@H](C(=O)O)C4)nc(N)n2)C(F)(F)F)c(-n2ccc(C)n2)c1 [Example 12c, (S)-8-(2-amino-6-((R)-1-(4-butyl-2-(3-methyl-1H-pyrazol-1-yl)phenyl)-2,2,2-trifluoroethoxy)pyrimidin-4-yl)-2,8-diazaspiro[4.5]decane-3-carboxylic acid] | – | – | – | – | *** (*** refers to P<0.005) | *** (*** refers to P<0.005)

Continued, molecule first:

Structure (SMILES) | IC50 [5] [nM] | TPH inhibition (in words) (TPH) | effect on central 5-HT production ([1]; in vivo) | CNS side effects ([1]; patients and animals) | efficacy against chemotherapy-induced emesis and diarrhea [2] | Efficacy (statistical significance of reduction of mucosal 5-HT concentrations relative to vehicle) [3] | Efficacy (statistical significance of reduction of mucosal 5-HT concentrations relative to vehicle) [4]
C#Cc1ccc(C[C@H](N)C(=O)O)cc1 [p-Ethynyl phenylalanine] | – | more selective and more potent TPH inhibitor than pCPA | affects central 5-HT production | – | – | – | –
N[C@@H](Cc1ccc(Cl)cc1)C(=O)O (racemic) [pCPA, p-chlorophenylalanine] | – | very weak and unselective irreversible inhibitor of TPH | – | linked to the onset of depression and other alterations of CNS functions | proven effective in treating chemotherapy-induced emesis, as well as diarrhea | – | –
Nc1nc(O[C@H](c2ccc(-c3ccc4ncccc4c3)cc2)C(F)(F)F)cc(N2CCC3(CC2)CN[C@H](C(=O)O)C3)n1 [Example 55bg, (S)-8-(2-amino-6-((R)-2,2,2-trifluoro-1-(4-(quinolin-6-yl)phenyl)ethoxy)pyrimidin-4-yl)-2,8-diazaspiro[4.5]decane-3-carboxylic acid] | < 50 | – | – | – | – | *** (*** refers to P<0.005) | *** (*** refers to P<0.005)

Source: patent US11759462B2, “Spirocyclic compounds as tryptophan hydroxylase inhibitors” (priority 2013, dated 2023)
